From patent US4477463A, “Antiinflammatory and/or analgesic 1-alkyl-4,5-diaryl-2-fluoroalkyl-1H-pyrroles” (E. I. Du Pont de Nemours and Company, priority 1982, dated 1984) come the findings set out here.

Where two headings read alike, the source gives them in different places.

Assay [1] has as its system adjuvant-induced arthritis in rats. The experiment in a line: Established Adjuvant-Induced Arthritis in Rats. Format: in vivo, Charles River Lewis male rats. To be noted: for ED50: Rattus norvegicus, read-out: Adjuvant Arthritic ED50; for percent reduction in paw volume: at 9 mg/kg.
Assay [2] has as its system phenylquinone-induced writhing in mice. The assay can be described thus: Phenylquinone Writhing Test. Format: in vivo, female white mice. To be noted: Mus musculus, read-out: Phenylquinone Writhing (PQW) ED50. The procedure: Phenylquinone Writhing Test
A test compound suspended in 1% methylcellulose was given orally to fasted (17-21 hours) female white mice, 5-20 animals per double blind test. Aqueous (0.01% phenyl-p-benzoquinone) phenylquinone, 0.20 ml per mouse, was injected intraperitoneally 6 minutes before observations were begun.
For orientation: In writhing tests, fewer writhes than in controls are read as antinociception.

Where [3] appears, read: ED50% decrease from control paw volume (uninjected, left hind paw), oral, daily for 7 days, read one day after last dose.
[4] abbreviates: effective analgesic dose for 50% of the mice, oral, 0.01% phenylquinone 0.20 ml i.p.
Where [5] appears, read: oral, daily for 7 days, read one day after last dose.

As a reminder, the ED50 is the dose that gives a 50% effect, or the effect in half of the subjects. As for `CCn1c(C(F)(F)F)cc(-c2ccc(OC)cc2)c1-c1ccc(OC)cc1` [Example 3], the median effective dose (ED50) in assay [1] (setting [3]) amounted to 18 mg/kg; in assay [2] (setting [4]), 47 mg/kg.
With `Cn1c(C(F)(F)F)cc(-c2ccc(Cl)cc2)c1-c1ccc(Cl)cc1` [Example 4], the “percent reduction in paw volume” value in assay [1] (setting [5]) was determined as 29%.
Regarding `CCCCC1C(=O)N(c2ccccc2)N(c2ccccc2)C1=O` [Phenylbutazone, reference compound], the results for the median effective dose (ED50) in assay [1] (setting [3]) and in assay [2] (setting [4]) were 10 mg/kg and 80 mg/kg, respectively.
In the case of `Cc1ccc(-c2cc(C(F)(F)F)n(C)c2-c2ccc(C)cc2)cc1` [Example 5], the “percent reduction in paw volume” value in assay [1] (setting [5]) is reported as 28%. Besides, the ED50 in assay [2] (setting [4]) worked out at 18 mg/kg.
In the case of `CSc1ccc(-c2c(-c3ccc(F)cc3)cc(C(F)(F)F)n2C)cc1` [Example 6, 4-(4-fluorophenyl)-1-methyl-5-(4-methylthiophenyl)-2-trifluoromethyl-1H-pyrrole], the ED50 in assay [1] (setting [3]) was determined as 1.8 mg/kg; in assay [2] (setting [4]) it was 16 mg/kg.
As for `CSc1ccc(-c2cc(C(F)(F)F)n(C)c2-c2ccc(SC)cc2)cc1` [Example 8, 1-methyl-4,5-bis(4-methylthiophenyl)-2-trifluoromethyl-1H-pyrrole], the ED50 in assay [1] (setting [3]) was 1.8 mg/kg; in assay [2] (setting [4]) it was above 108 mg/kg.
For the compound `COc1ccc2c(c1)c(CC(=O)O)c(C)n2C(=O)c1ccc(Cl)cc1` [Indomethacin, reference compound], the 50% effective dose (ED50) in assay [1] (po) amounted to 0.3 mg/kg; in assay [2] (po) it was 0.35 mg/kg.
Regarding `CC(C)Cc1ccc(C(C)C(=O)O)cc1` (stereo not shown) [Ibuprofen, reference compound], the ED50 in assay [1] (setting [3]) is 100 mg/kg; in assay [2] (setting [4]), 10 mg/kg.
Regarding `Cn1c(C(F)(F)F)cc(-c2ccc(F)cc2)c1-c1ccc(S(C)(=O)=O)cc1` [Example 7, 4-(4-fluorophenyl)-1-methyl-5-(4-methylsulfonylphenyl)-2-trifluoromethyl-1H-pyrrole], the median effective dose (ED50) in assay [1] (setting [3]) worked out at 3.5 mg/kg.
`COc1ccc(-c2cc(C(F)(F)C(F)(F)F)n(C)c2-c2ccc(OC)cc2)cc1` [Example 2, 4,5-bis(4-methoxyphenyl)-1-methyl-2-pentafluoroethyl-1H-pyrrole]: the “percent reduction in paw volume” value in assay [1] (setting [5]) is 32%. Besides, the 50% effective dose (ED50) in assay [2] (setting [4]) is 1.8 mg/kg.
In the case of `CC(=O)Oc1ccccc1C(=O)O` [Aspirin, reference compound], the ED50 turned out to be 305 mg/kg in assay [1] (po) and 135 mg/kg in assay [2] (po).
Regarding `COc1ccc(-c2cc(C(F)(F)F)n(C)c2-c2ccc(OC)cc2)cc1` [Example 1, 4,5-Bis(4-methoxyphenyl)-1-methyl-2-trifluoromethyl-1H-pyrrole], the 50% effective dose (ED50) in assay [1] (setting [3]) turned out to be 1.25 mg/kg; in assay [2] (setting [4]), 16 mg/kg.
